Entries after “also recorded” stand apart in the source; their conditions may differ.
Columns and labels:
MEG-01 cells [1] = experiment: Viability (proliferation) assay, Trypan blue exclusion, MEG-01; type: cell-based, human
tumor tissue and organs = experiment: Hematoxylin & eosin staining of tumor tissue and organs of treated xenograft mice (all cell lines); type: in vivo
Procedure: (§1) Hematoxylin & eosin staining of tumor tissue and organs. After euthanasia with CO2, mice were supposed to necropsy. Tumors were collected from under the skin from both flanks and were measured for the last time and then fixed in formalin fixative. Spleen, liver, kidney, brain, lungs and legs were collected and fixed. Spleens were also measured (as length, […]). Fresh tissue was immersed immediately into liquid nitrogen and kept frozen at −80° C. Fixed tissue was embedded in paraffin and next processed for H&E (the basic dye hematoxylin, and the alcohol-based synthetic material, eosin) by the Cleveland Clinic Histology Core facility. Sections (4-μm thick) were stained with hematoxylin and eosin and evaluated for pathologic changes in a blinded fashion. H&E staining gives morphological information (vascularization, normal proliferating tissue, necrosis and apoptosis of the tissue).

WM-164 xenografts = experiment: In vivo therapy of WM-164 xenografts, tumor volume; parameters: species or system mice
Description: Creation of the xenografts MCF-7, SW-480 and WM-164. Immunodeficient male and female athymic nude nu/nu mice were used, provided and housed by Dr. Lindner, DJ from Taussig Cancer Center, Cleveland Clinic and Case Western Reserve University. Mice were checked every day. Mice were housed in filtered air flow cabinets with autoclaved bedding at a density of 5 mice/cage. They were fed autoclaved Purina Lab Rodent Chow® 5010 and HCl-acidified distilled water ad libitum and were placed in rooms with controlled temperature, humidity and 12-hr light-dark cycles. Procedures involving animals and their care were conducted in conformity with the institutional guidelines that are in compliance with national and international laws and policies (EEC Council Directive 86/609, OJL 358, Dec. 1, 1987, and the National Institutes of Health Guide for the Care and Use of Laboratory, Animals, NIH Publication 85-23, 1985).
For engraftment, cells in cell culture media were injected. […] Cells were counted with a hemacytometer using Trypan blue (only live cells were counted). […]
In vivo therapy with DMAT of WM-164 xenografts. […] Tumor diameters were measured using a caliper and tumor volume was calculated using the prolate-spheroid formula. […]

WM-164 cells [2] = experiment: Anchorage independence in soft agar, WM-164; type: cell-based, human; settings: DMAT 10 μM, one week
WM-164 cells [3] = experiment: Proliferation assay in vitro, WM-164; type: cell-based, human; settings: for cell counts: four days
Description: (§2) Viability (proliferation) assay, Trypan blue exclusion. Cells were counted using a Neubauer hemacytometer.

[4] = 25 mg/kg twice daily, injections in mice; cited from earlier work
SW-480 cells = experiment: Anchorage independence in soft agar, SW-480; type: cell-based, human; settings: DMAT 10 μM, one week
MEG-01 cells [5] = experiment: Flow cytometric DNA content assay using PI/RNAse A; type: cell-based, human; settings: 10 μM DMAT for 4 days
Procedure: Flow cytometric DNA content assessment assay using PI/RNAse A. Cells were serum starved in order to synchronize them in the GO phase. Treatment with DMAT 10 μM for a period of 4 days was performed and then cells were collected for further processing. Cells were fixed in 80% cold Ethanol/PBS added drop-wise. Before PI staining cells were washed with sterile, RNAse, DNAse free, PBS buffer. Fixed cells were incubated with 50 μg/ml PI and 100 μg/ml RNAse A-I in hypotonic citrate staining buffer for 30 minutes in dark, at room temperature.

MCF-7 cells [6] = experiment: Proliferation assay in vitro, MCF-7; type: cell-based, human; settings: five days
Description: as §2

MEG-01 tumors = experiment: Hematoxylin & eosin staining of MEG-01 tumors; type: in vivo, mice; parameters: dose or concentration left out as unconfirmed; settings: DMAT treated vs control
Procedure: as §1

MCF-7 cells [7] = experiment: Annexin V apoptosis/necrosis assay, MCF-7; type: cell-based, human
Procedure: Apoptosis Assays using Flow Cytometry with Annexin V-FITC and propidium iodide (PI). For induction of typical apoptosis, cells were grown in the presence of 1 μM staurosporine (Sigma-Aldrich) for 6 hours. The staurosporine treated cells were stained as follows: control 1 with PI, control 2 with Annexin V-FITC and control 3 both PI and Annexin V-FITC in order to have the brightest controls for compensation and proper collection of the flow cytometry data. Cell necrosis was induced by heat shock (65° C. for 30 minutes). The stained control, both PI and Annexin V-FITC labeled, was then used as the reference in establishing the level of apoptosis induced by the treatments. Data was collected on logarithmic modes, two-colors. Annexin V-FITC corresponds to FL1 H channel, and PI to FL3H or FL2H channels.
Annexin V-FITC and PI apoptosis assay staining protocol. Apoptosis Annexin V-FITC and PI kit from BD Biosciences, CA, USA, was used. 10^5-10^6 cells were stained with 50 μg/ml PI and with 0.5 μg/ml FITC-labeled Annexin V using the staining protocol provided by the supplier. Samples were then analyzed immediately by flow cytometry.

## CN(C)c1nc2c(Br)c(Br)c(Br)c(Br)c2[nH]1 [DMAT, 2-dimethylamino-4,5,6,7-tetrabromo-1H-benzimidazole]
MEG-01 cells [1]; 25 μM DMAT, compared with 5 nM PMA
  proliferation of MEG-01 cells (Trypan Blue exclusion): level of decrease was similar
MEG-01 cells [1]; 50 μM DMAT, 4 days of treatment
  cell number / proliferation rate of MEG-01 cells: maintained a steady number of cells
Tumor tissue and organs; all tumors, hematoxylin-eosin staining
  necrotic and apoptotic areas of tumors from treated mice vs untreated (DMSO) control tumors: high necrotic and apoptotic areas
Tumor tissue and organs; mouse, in vivo
  other organs of treated mice, hematoxylin-eosin staining: appeared normal
WM-164 xenografts; DMAT 10 mg/kg (in DMSO) per day, fourteen days, control about 50 to about 1000 mm^3
  tumor volume: only a slight increase in tumor volume
WM-164 xenografts; small tumors remained at the end of the treatment
  response of xenograft tumors to treatment (summary): significant reduction in tumor volume
WM-164 cells [2]
  colonies in soft agar: much smaller and fewer colonies
WM-164 cells [3]
  sensitivity of proliferation to DMAT compared with MCF-7 and SW-480: more resistant
WM-164 cells [3]; 10 μM DMAT
  cell counts: cell counts between those of the control and those of the WM-164 cells treated with 20 μM
WM-164 cells [3]; 20 μM DMAT
  cell counts: lowest cell counts
[4]
  effect on the kidney, bone marrow, and liver as assessed histologically: had no effect
SW-480 cells
  colonies in soft agar: much smaller and fewer colonies
MEG-01 cells [5]
  DNA content (ploidy): become polyploid (ploidy higher than 2N)
MCF-7 cells [6]; 10 μM DMAT
  cell counts: cell counts between the control and the MCF-7 cells treated with 20 μM
MCF-7 cells [6]; 20 μM DMAT
  cell counts / proliferation: lowest cell counts; also recorded: proliferation arrest
MEG-01 tumors
  apoptotic-necrotic areas in tumors (hematoxylin and eosin): significantly greater areas of apoptosis and necrosis
MCF-7 cells [7]; 10 μM DMAT, 24 hours
  level of apoptotic cells: 28.4%
  level of necrotic cells: 8.7%
MCF-7 cells [7]; 20 μM DMAT
  level of apoptotic cells: 49.0%
  level of necrotic cells: 7.8%

From patent US20090054507A1, “CONTROL OF MALIGNANT CELLS BY KINASE INHIBITION” (CLEVELAND STATE UNIVERSITY, priority 2006, published 2009)
